Measurements published in publication PMC12380353, “MK-8527 is a novel inhibitor of HIV-1 reverse transcriptase translocation with potential for extended-duration dosing” (PLOS Biology, 2025).

What was measured:
PK in rats = type: in vivo; details: male, Wistar Hannover, plasma, rat
Procedure: All animal procedures were conducted according to the highest ethical standards using procedures approved by the Institutional Animal Care and Use Committee of Merck & Co., Rahway, NJ, USA (APS 2016-600774-FEB). Fasted male Wistar Hannover rats (n = 3 in each arm) weighing approximately 325 g were used for the PK studies. All blood samples were collected in EDTA-coated tubes at the time points specified below. For the IV arm of the study, a cannula was implanted in the jugular vein for dose administration and blood sampling. […] For the oral arm of the study, a solution of MK-8527 was administered by oral gavage at 2 mg/kg in 0.5% methylcellulose in water to fasted rats. […] The concentrations of MK-8527 in plasma were determined by LC–MS/MS assays following a protein precipitation step. Aliquots (50 µL) of plasma were precipitated by addition of 150 µL of acetonitrile solution-containing internal standard (IS), followed by centrifugation at 3,000 rpm for 10 min. A 75-µL aliquot of the supernatant was transferred into a 96-well plate, and 5 µL of each sample was used for analysis. LC–MS/MS analysis was performed on a Transcend LC system with HTS PAL CTC autosampler (Thermo Fisher Scientific, Waltham, MA, USA) interfaced to an API-5000 mass spectrometer using the turbo ion spray interface (Sciex, Framingham, MA, USA). Separation of MK-8527 was achieved on an Xselect HSS XP T3 column (50 × 2.1 mm, 2.5 µm; […] The chromatography for plasma samples was run using gradient elution as follows: the column was equilibrated with 100% A. […] The total run time was 4.15 min. Quantification was done by monitoring the transition of m/z 309 to m/z 169 or 133 for MK-8527. The method was linear across a concentration range of 2–10,000 ng/mL in plasma.

human DNA polymerase β = human DNA polymerase β (Homo sapiens, UniProt P06746); test: Human DNA polymerase β inhibition assay; type: biochemical; details: highest concentration tested 200 µM
Procedure: (§1) The activities of human DNA polymerases α, β, and γ were measured in radiolabeled nucleotide incorporation assays. TP was prepared as a 10-point titration with 3-fold serial dilution in water. Reaction buffers for the DNA polymerase α and β assays both contained 20 mM Tris pH 7.5, 10 mM MgCl2, 50 μM EDTA, 200 μg/mL bovine serum albumin (BSA), 2 mM dithiothreitol (DTT), 1.6 μM each of dNTP (dATP, dCTP, dGTP, and dTTP), 20 μCi/mL [α33P]dATP, 0.1 mg/mL gapped activated fish sperm DNA template, test compound, and 0.005 U/μL DNA polymerase α or 0.0025 U/μL DNA polymerase β. The reaction buffer for DNA polymerase γ contained 20 mM Tris pH 8, 10 mM MgCl2, 50 mM KCl, 100 μg/mL BSA, 2 mM β-mercaptoethanol, 10 μM of each dNTP (dATP, dCTP, dGTP, and dTTP), 20 μCi/mL [α33P]dATP, 0.04 mg/mL gapped activated fish sperm DNA template, test compound, and 0.0003 μg/μL DNA polymerase γ. The 50-μL reactions were incubated at room temperature for 30 min (for β and γ) or 90 min (for α) before terminating with the addition of 50 μL 500 mM EDTA. The reaction mixtures were transferred to a Millipore DE81 filter plate (EMD Millipore; Hayward, CA), washed with 0.5 M sodium phosphate pH 7.0, and dried. After addition of 40 μL scintillant to each well, the incorporation of labeled dATP was determined with a microplate counter (TopCount NXT HTS; PerkinElmer, Shelton, CA, USA).

human DNA polymerase α = target: T1, human DNA polymerase α (Homo sapiens, UniProt P09884); test: Human DNA polymerase α inhibition assay; type: biochemical; details: top concentration 200 µM
T1 sequence (P09884 1-1462): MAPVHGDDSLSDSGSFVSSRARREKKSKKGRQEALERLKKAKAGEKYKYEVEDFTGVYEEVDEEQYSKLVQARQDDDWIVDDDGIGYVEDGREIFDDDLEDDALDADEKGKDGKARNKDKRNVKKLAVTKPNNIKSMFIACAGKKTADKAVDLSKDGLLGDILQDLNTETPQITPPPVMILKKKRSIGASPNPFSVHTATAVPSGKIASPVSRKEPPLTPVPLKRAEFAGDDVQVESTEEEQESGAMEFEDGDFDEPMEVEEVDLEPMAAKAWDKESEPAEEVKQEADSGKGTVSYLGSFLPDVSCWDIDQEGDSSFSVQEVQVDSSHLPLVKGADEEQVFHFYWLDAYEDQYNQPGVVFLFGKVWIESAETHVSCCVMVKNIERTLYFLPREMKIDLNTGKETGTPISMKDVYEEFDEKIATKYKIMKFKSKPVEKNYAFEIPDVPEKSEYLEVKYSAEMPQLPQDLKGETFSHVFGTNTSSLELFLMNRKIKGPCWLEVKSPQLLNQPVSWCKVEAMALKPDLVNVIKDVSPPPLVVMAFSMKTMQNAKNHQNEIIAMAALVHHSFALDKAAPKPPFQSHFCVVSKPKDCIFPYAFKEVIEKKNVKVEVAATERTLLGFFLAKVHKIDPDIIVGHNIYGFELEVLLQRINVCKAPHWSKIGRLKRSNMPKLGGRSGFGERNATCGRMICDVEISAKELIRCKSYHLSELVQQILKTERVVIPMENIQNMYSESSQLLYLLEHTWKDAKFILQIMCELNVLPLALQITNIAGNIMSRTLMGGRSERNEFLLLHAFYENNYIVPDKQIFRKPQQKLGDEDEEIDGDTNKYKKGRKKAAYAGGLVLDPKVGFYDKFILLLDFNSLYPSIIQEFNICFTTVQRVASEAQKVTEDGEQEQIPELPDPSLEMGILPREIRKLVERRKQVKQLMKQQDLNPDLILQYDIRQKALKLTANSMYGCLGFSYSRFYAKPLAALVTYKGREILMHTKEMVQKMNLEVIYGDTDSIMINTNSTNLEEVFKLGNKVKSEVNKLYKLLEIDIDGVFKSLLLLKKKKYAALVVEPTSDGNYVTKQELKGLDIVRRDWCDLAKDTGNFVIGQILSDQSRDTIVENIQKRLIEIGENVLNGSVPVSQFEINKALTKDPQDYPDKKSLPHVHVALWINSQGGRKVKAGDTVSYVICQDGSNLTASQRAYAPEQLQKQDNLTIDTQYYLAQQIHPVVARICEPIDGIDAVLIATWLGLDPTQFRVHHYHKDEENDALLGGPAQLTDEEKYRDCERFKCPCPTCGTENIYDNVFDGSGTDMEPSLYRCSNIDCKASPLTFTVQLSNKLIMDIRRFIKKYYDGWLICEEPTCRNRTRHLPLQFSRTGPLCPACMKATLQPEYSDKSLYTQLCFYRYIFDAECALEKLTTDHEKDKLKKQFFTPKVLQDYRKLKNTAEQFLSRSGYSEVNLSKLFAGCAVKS
Procedure: as §1

Structure (SMILES)	clearance (PK in rats; IV 1.0 mg/kg, read-out: CLp) [mL/min/kg]	Vd (PK in rats; IV 1.0 mg/kg, read-out: Vdss) [L/kg]	bioavailability (PK in rats; oral 2 mg/kg) [%]	half-life (PK in rats; IV 1.0 mg/kg, read-out: t½ (converted)) [h]	Inhibitory activity (human DNA polymerase β)	IC50 (human DNA polymerase α) [µM]
C#C[C@]1(CO)O[C@@H](n2ccc3c(N)nc(Cl)nc32)C[C@@H]1O [Compound 12, (2R,3S,5R)-5-(4-amino-2-chloro-7H-pyrrolo[2,3-d]pyrimidin-7-yl)-2-ethynyl-2-(hydroxymethyl)tetrahydrofuran-3-ol]	18.1 ± 3.3	2 ± 0.3	57	2.3 ± 1.3	–	–
C#C[C@]1(COP(=O)(O)OP(=O)(O)OP(=O)(O)O)O[C@@H](n2ccc3c(N)nc(Cl)nc32)C[C@@H]1O [MK-8527-TP]	–	–	–	–	no inhibitory activity	95
